The source of these data is PubChem BioAssay AID1963984 (Molecular Pharmacology Branch, DTP, NCI, 2024).

SMILES strings stand for the structures.

In general, viability, T/C refers to the ratio of treated to control.
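Further: spheroids exposed to agents for seven days before readout; percent viability relative to DMSO vehicle control taken as 100%.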

In the first assay the test system is 233499-124-R-J3-PDC spheroids with HUVEC/MSC, viability. Put plainly: Anticancer human tumor 233499-124-R-J3-PDC patient-derived colon adenocarcinoma cell line growth inhibition [PI3K]. The note with it: second compound 3.16 µM; first compound 0.1 µM; active compounds read low. An outline of the steps:
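Complex 3D spheroids (cancer cells + endothelial HUVEC + mesenchymal stem cells); drug pairs of targeted agent x inavolisib/alpelisib/duvelisib/copanlisib; half-log series from ~Cmax, max 10 microM if Cmax unknown; endpoint viability.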
With `CC(C)NCC(C(=O)N1CCN(c2ncnc3c2C(C)CC3O)CC1)c1ccc(Cl)cc1` (configuration not stated) + CC(Nc1ncnc2nc[nH]c12)c1cc2cccc(Cl)c2c(=O)n1-c1ccccc1, the viability, T/C is 93.6%.
Still for that read-out and setting: as for `CCN1CCN(Cc2ccc(Nc3ncc(F)c(-c4cc(F)c5nc(C)n(C(C)C)c5c4)n3)nc2)CC1` + CC(Nc1ncnc2nc[nH]c12)c1cc2cccc(Cl)c2c(=O)n1-c1ccccc1, the figure is 72.6%.
The same measure, in the same setting: under `Cn1ncc(Cl)c1-c1cc(C(=O)NC(CN)Cc2cccc(F)c2)sc1Cl` (configuration not stated) + CC(Nc1ncnc2nc[nH]c12)c1cc2cccc(Cl)c2c(=O)n1-c1ccccc1 stands 98.6%; under `Cn1nccc1Nc1nccc(-c2ccn(C(CO)c3ccc(Cl)c(F)c3)c(=O)c2)n1` (configuration not stated) + CC(Nc1ncnc2nc[nH]c12)c1cc2cccc(Cl)c2c(=O)n1-c1ccccc1, 87.9%.

Staying with this assay, now noted: second compound 3.16 µM; first compound 0.316 µM; active compounds read low.
In the case of `CC(C)NCC(C(=O)N1CCN(c2ncnc3c2C(C)CC3O)CC1)c1ccc(Cl)cc1` (configuration not stated) + CC(Nc1ncnc2nc[nH]c12)c1cc2cccc(Cl)c2c(=O)n1-c1ccccc1, the viability, T/C was 96.9%.
Turning to `CCN1CCN(Cc2ccc(Nc3ncc(F)c(-c4cc(F)c5nc(C)n(C(C)C)c5c4)n3)nc2)CC1` + CC(Nc1ncnc2nc[nH]c12)c1cc2cccc(Cl)c2c(=O)n1-c1ccccc1, the viability, T/C was 39%.
Regarding `Cn1ncc(Cl)c1-c1cc(C(=O)NC(CN)Cc2cccc(F)c2)sc1Cl` (configuration not stated) + CC(Nc1ncnc2nc[nH]c12)c1cc2cccc(Cl)c2c(=O)n1-c1ccccc1, the viability, T/C was 79.1%.
Still for that read-out and setting: as for `Cn1nccc1Nc1nccc(-c2ccn(C(CO)c3ccc(Cl)c(F)c3)c(=O)c2)n1` (configuration not stated) + CC(Nc1ncnc2nc[nH]c12)c1cc2cccc(Cl)c2c(=O)n1-c1ccccc1, the figure is 74.5%.

Staying with this assay, now noted: second compound 3.16 µM; first compound 1 µM; active compounds read low.
`CC(C)NCC(C(=O)N1CCN(c2ncnc3c2C(C)CC3O)CC1)c1ccc(Cl)cc1` (configuration not stated) + CC(Nc1ncnc2nc[nH]c12)c1cc2cccc(Cl)c2c(=O)n1-c1ccccc1: the viability, T/C was 85.7%.
`CCN1CCN(Cc2ccc(Nc3ncc(F)c(-c4cc(F)c5nc(C)n(C(C)C)c5c4)n3)nc2)CC1` + CC(Nc1ncnc2nc[nH]c12)c1cc2cccc(Cl)c2c(=O)n1-c1ccccc1: the viability, T/C was 32.8%.
On the same count and under the same terms, as for `Cn1ncc(Cl)c1-c1cc(C(=O)NC(CN)Cc2cccc(F)c2)sc1Cl` (configuration not stated) + CC(Nc1ncnc2nc[nH]c12)c1cc2cccc(Cl)c2c(=O)n1-c1ccccc1, the figure is 106%; as for `Cn1nccc1Nc1nccc(-c2ccn(C(CO)c3ccc(Cl)c(F)c3)c(=O)c2)n1` (configuration not stated) + CC(Nc1ncnc2nc[nH]c12)c1cc2cccc(Cl)c2c(=O)n1-c1ccccc1, 89.8%.

Staying with this assay, now noted: second compound 3.16 µM; first compound 3.16 µM; active compounds read low.
Regarding `CC(C)NCC(C(=O)N1CCN(c2ncnc3c2C(C)CC3O)CC1)c1ccc(Cl)cc1` (configuration not stated) + CC(Nc1ncnc2nc[nH]c12)c1cc2cccc(Cl)c2c(=O)n1-c1ccccc1, the viability, T/C is 81.1%.
Take `Cn1ncc(Cl)c1-c1cc(C(=O)NC(CN)Cc2cccc(F)c2)sc1Cl` (configuration not stated) + CC(Nc1ncnc2nc[nH]c12)c1cc2cccc(Cl)c2c(=O)n1-c1ccccc1: the viability, T/C was 64.5%.
As to `Cn1nccc1Nc1nccc(-c2ccn(C(CO)c3ccc(Cl)c(F)c3)c(=O)c2)n1` (configuration not stated) + CC(Nc1ncnc2nc[nH]c12)c1cc2cccc(Cl)c2c(=O)n1-c1ccccc1, the viability, T/C is 66.3%.

The same assay, now with this note: second compound 3.16 µM; first compound 10 µM; active compounds read low.
In the case of `CC(C)NCC(C(=O)N1CCN(c2ncnc3c2C(C)CC3O)CC1)c1ccc(Cl)cc1` (configuration not stated) + CC(Nc1ncnc2nc[nH]c12)c1cc2cccc(Cl)c2c(=O)n1-c1ccccc1, the viability, T/C is 77.5%.
For `Cn1ncc(Cl)c1-c1cc(C(=O)NC(CN)Cc2cccc(F)c2)sc1Cl` (configuration not stated) + CC(Nc1ncnc2nc[nH]c12)c1cc2cccc(Cl)c2c(=O)n1-c1ccccc1, the viability, T/C was 31.5%.
With `Cn1nccc1Nc1nccc(-c2ccn(C(CO)c3ccc(Cl)c(F)c3)c(=O)c2)n1` (configuration not stated) + CC(Nc1ncnc2nc[nH]c12)c1cc2cccc(Cl)c2c(=O)n1-c1ccccc1, the viability, T/C is 77.6%.

The assay is the same for the next values; noted with them: second compound 10 µM; first compound 0.00316 µM; active compounds read low.
As for `CCN1CCN(Cc2ccc(Nc3ncc(F)c(-c4cc(F)c5nc(C)n(C(C)C)c5c4)n3)nc2)CC1` + CC(Nc1ncnc2nc[nH]c12)c1cc2cccc(Cl)c2c(=O)n1-c1ccccc1, the viability, T/C was 75.9%.

The same assay, now with this note: second compound 10 µM; first compound 0.01 µM; active compounds read low.
Take `CCN1CCN(Cc2ccc(Nc3ncc(F)c(-c4cc(F)c5nc(C)n(C(C)C)c5c4)n3)nc2)CC1` + CC(Nc1ncnc2nc[nH]c12)c1cc2cccc(Cl)c2c(=O)n1-c1ccccc1: the viability, T/C was 73.7%.

Staying with this assay, now noted: second compound 10 µM; first compound 0.0316 µM; active compounds read low.
Regarding `CC(C)NCC(C(=O)N1CCN(c2ncnc3c2C(C)CC3O)CC1)c1ccc(Cl)cc1` (configuration not stated) + CC(Nc1ncnc2nc[nH]c12)c1cc2cccc(Cl)c2c(=O)n1-c1ccccc1, the viability, T/C was 78%.
Turning to `CCN1CCN(Cc2ccc(Nc3ncc(F)c(-c4cc(F)c5nc(C)n(C(C)C)c5c4)n3)nc2)CC1` + CC(Nc1ncnc2nc[nH]c12)c1cc2cccc(Cl)c2c(=O)n1-c1ccccc1, the viability, T/C is 90.8%.
The same measure, in the same setting: as for `Cn1ncc(Cl)c1-c1cc(C(=O)NC(CN)Cc2cccc(F)c2)sc1Cl` (configuration not stated) + CC(Nc1ncnc2nc[nH]c12)c1cc2cccc(Cl)c2c(=O)n1-c1ccccc1, the figure is 94.8%; as for `Cn1nccc1Nc1nccc(-c2ccn(C(CO)c3ccc(Cl)c(F)c3)c(=O)c2)n1` (configuration not stated) + CC(Nc1ncnc2nc[nH]c12)c1cc2cccc(Cl)c2c(=O)n1-c1ccccc1, 76.8%.

The same assay, now with this note: second compound 10 µM; first compound 0.1 µM; active compounds read low.
With `CC(C)NCC(C(=O)N1CCN(c2ncnc3c2C(C)CC3O)CC1)c1ccc(Cl)cc1` (configuration not stated) + CC(Nc1ncnc2nc[nH]c12)c1cc2cccc(Cl)c2c(=O)n1-c1ccccc1, the viability, T/C is 89.9%.
On the same count and under the same terms, under `CCN1CCN(Cc2ccc(Nc3ncc(F)c(-c4cc(F)c5nc(C)n(C(C)C)c5c4)n3)nc2)CC1` + CC(Nc1ncnc2nc[nH]c12)c1cc2cccc(Cl)c2c(=O)n1-c1ccccc1 stands 57%; under `Cn1ncc(Cl)c1-c1cc(C(=O)NC(CN)Cc2cccc(F)c2)sc1Cl` (configuration not stated) + CC(Nc1ncnc2nc[nH]c12)c1cc2cccc(Cl)c2c(=O)n1-c1ccccc1, 92%.
As for `Cn1nccc1Nc1nccc(-c2ccn(C(CO)c3ccc(Cl)c(F)c3)c(=O)c2)n1` (configuration not stated) + CC(Nc1ncnc2nc[nH]c12)c1cc2cccc(Cl)c2c(=O)n1-c1ccccc1, the viability, T/C is 83.8%.

Staying with this assay, now noted: second compound 10 µM; first compound 0.316 µM; active compounds read low.
For `CC(C)NCC(C(=O)N1CCN(c2ncnc3c2C(C)CC3O)CC1)c1ccc(Cl)cc1` (configuration not stated) + CC(Nc1ncnc2nc[nH]c12)c1cc2cccc(Cl)c2c(=O)n1-c1ccccc1, the viability, T/C was 87.4%.
The same measure, in the same setting: as for `CCN1CCN(Cc2ccc(Nc3ncc(F)c(-c4cc(F)c5nc(C)n(C(C)C)c5c4)n3)nc2)CC1` + CC(Nc1ncnc2nc[nH]c12)c1cc2cccc(Cl)c2c(=O)n1-c1ccccc1, the figure is 51%; as for `Cn1ncc(Cl)c1-c1cc(C(=O)NC(CN)Cc2cccc(F)c2)sc1Cl` (configuration not stated) + CC(Nc1ncnc2nc[nH]c12)c1cc2cccc(Cl)c2c(=O)n1-c1ccccc1, 108%; as for `Cn1nccc1Nc1nccc(-c2ccn(C(CO)c3ccc(Cl)c(F)c3)c(=O)c2)n1` (configuration not stated) + CC(Nc1ncnc2nc[nH]c12)c1cc2cccc(Cl)c2c(=O)n1-c1ccccc1, 98%.

The assay is the same for the next values; noted with them: second compound 10 µM; first compound 1 µM; active compounds read low.
For `CC(C)NCC(C(=O)N1CCN(c2ncnc3c2C(C)CC3O)CC1)c1ccc(Cl)cc1` (configuration not stated) + CC(Nc1ncnc2nc[nH]c12)c1cc2cccc(Cl)c2c(=O)n1-c1ccccc1, the viability, T/C is 68.8%.
The same measure, in the same setting: under `CCN1CCN(Cc2ccc(Nc3ncc(F)c(-c4cc(F)c5nc(C)n(C(C)C)c5c4)n3)nc2)CC1` + CC(Nc1ncnc2nc[nH]c12)c1cc2cccc(Cl)c2c(=O)n1-c1ccccc1 stands 38.4%.
`Cn1ncc(Cl)c1-c1cc(C(=O)NC(CN)Cc2cccc(F)c2)sc1Cl` (configuration not stated) + CC(Nc1ncnc2nc[nH]c12)c1cc2cccc(Cl)c2c(=O)n1-c1ccccc1: the viability, T/C was 65.2%.
On to `Cn1nccc1Nc1nccc(-c2ccn(C(CO)c3ccc(Cl)c(F)c3)c(=O)c2)n1` (configuration not stated) + CC(Nc1ncnc2nc[nH]c12)c1cc2cccc(Cl)c2c(=O)n1-c1ccccc1, for which the viability, T/C was 69.9%.

The assay is the same for the next values; noted with them: second compound 10 µM; first compound 3.16 µM; active compounds read low.
As to `CC(C)NCC(C(=O)N1CCN(c2ncnc3c2C(C)CC3O)CC1)c1ccc(Cl)cc1` (configuration not stated) + CC(Nc1ncnc2nc[nH]c12)c1cc2cccc(Cl)c2c(=O)n1-c1ccccc1, the viability, T/C is 99.5%.
Same read-out and setting: under `Cn1ncc(Cl)c1-c1cc(C(=O)NC(CN)Cc2cccc(F)c2)sc1Cl` (configuration not stated) + CC(Nc1ncnc2nc[nH]c12)c1cc2cccc(Cl)c2c(=O)n1-c1ccccc1 stands 69.6%.
Take `Cn1nccc1Nc1nccc(-c2ccn(C(CO)c3ccc(Cl)c(F)c3)c(=O)c2)n1` (configuration not stated) + CC(Nc1ncnc2nc[nH]c12)c1cc2cccc(Cl)c2c(=O)n1-c1ccccc1: the viability, T/C is 76.4%.

The same assay, now with this note: second compound 10 µM; first compound 10 µM; active compounds read low.
`CC(C)NCC(C(=O)N1CCN(c2ncnc3c2C(C)CC3O)CC1)c1ccc(Cl)cc1` (configuration not stated) + CC(Nc1ncnc2nc[nH]c12)c1cc2cccc(Cl)c2c(=O)n1-c1ccccc1: the viability, T/C is 88%.
Same read-out and setting: as for `Cn1ncc(Cl)c1-c1cc(C(=O)NC(CN)Cc2cccc(F)c2)sc1Cl` (configuration not stated) + CC(Nc1ncnc2nc[nH]c12)c1cc2cccc(Cl)c2c(=O)n1-c1ccccc1, the figure is 32.4%.
As for `Cn1nccc1Nc1nccc(-c2ccn(C(CO)c3ccc(Cl)c(F)c3)c(=O)c2)n1` (configuration not stated) + CC(Nc1ncnc2nc[nH]c12)c1cc2cccc(Cl)c2c(=O)n1-c1ccccc1, the viability, T/C is 51.9%.
